Results: patent US12509441B2, “Compounds used as kinase inhibitors and application thereof” (TYK MEDICINES (ZHENGZHOU), INC., priority 2020, dated 2025)

Legend:
[1] = target: Ba/F3-FL-EGFR-D77-N771 ins SVD (Homo sapiens, UniProt P00533, DUP768-770, cells depend on it); experiment: Cell proliferation inhibitory activity test (CellTiter-Glo), EGFR exon 20 insertion mutation; assay type: cell-based; conditions: 72 h; class symbols; read-out: Ba/F3-FL-EGFR IC50 (nM) D77-N771ins SVD
Protocol: (§1) Cell Proliferation Inhibitory Activity Test Experiment of EGFR Exon 20 Insertion Mutation:
(§2) Cells such as Ba/F3-FL-EGFR-V769-D770 ins ASV, Ba/F3-FL-EGFR-D77-N771 ins SVD, Ba/F3-FL-EGFR-H773-V774 ins NPH, Ba/F3-FL-EGFR-A763-Y764 ins FQEA, constructed by Hefei Precedo Pharmaceuticals Co., Ltd.
(§3) 1000× compound mother liquor was prepared using DMSO, diluted to 20× final concentration using a culture medium, set aside.
(§4) Cells obtained after centrifugation were suspended with a certain amount of the culture medium and counted. The cell suspension solution was adjusted to a specified density using the culture medium, the diluted cell suspension solution was taken into a 96-well plate; 5 μl of 20× compound solution was added to each well of the 96-well plate, the content of DMSO in the final system was 0.1%; the 96-well plate was incubated for 72 h in a 5% CO2 cell incubator at 37° C.
(§5) The 96-well plate was brought to room temperature before detection, 50 μl of CellTiter-Glo® reagent was added to each well, the plate was read after being shaken for 2 minutes on a shaker and placed for 10 minutes at room temperature.
(§6) Inhibition rate (Inh %) relative to control wells processed by a solvent (DMSO) was calculated using the following equation: Inhibition rate (Inh %)=100−(RLU compound−RLU blank)/(RLU control−RLU blank)*100%

[2] = target: T1, Ba/F3-FL-EGFR-V769-D770 ins ASV (Homo sapiens, UniProt P00533, DUP767-769, cells depend on it); experiment: as above; assay type: cell-based; conditions: 72 h; class symbols; read-out: Ba/F3-FL-EGFR IC50 (nM) V769-D770ins ASV
T1 construct: Ba/F3-FL-EGFR IC50 (nM) V769-D770ins ASV; other: 72 h; class symbols; Ba/F3-FL-EGFR IC50 (nM) V769-D770ins ASV
Protocol: as §1, §2, §3, §4, §5, §6

[3] = target: Ba/F3-FL-EGFR-A763-Y764 ins FQEA (Homo sapiens, UniProt P00533, INS763FQEA, cells depend on it); experiment: as above; assay type: cell-based; conditions: 72 h; class symbols; read-out: Ba/F3-FL-EGFR IC50 (nM) A763-Y764ins FQEA
Protocol: as §1, §2, §3, §4, §5, §6

[4] = target: Ba/F3-FL-EGFR-H773-V774 ins NPH (Homo sapiens, UniProt P00533, DUP771-773, cells depend on it); experiment: as above; assay type: cell-based; conditions: 72 h; class symbols; read-out: Ba/F3-FL-EGFR IC50 (nM) H773-V774ins NPH
Protocol: as §1, §2, §3, §4, §5, §6

[5] = target: EGFR exon 20 insertion mutant kinase A763_Y764insFHEA (Homo sapiens, UniProt P00533, INS763FHEA); experiment: Kinase activity assay (33P-ATP filter-binding), EGFR exon 20 insertion mutant kinase A763_Y764insFHEA; assay type: biochemical; conditions: for IC50: ATP Km concentration, 10 concentrations
[6] = target: EGFR exon 20 insertion mutant kinase D770-N771insNPG (Homo sapiens, UniProt P00533, INS770NPG); experiment: Kinase activity assay (33P-ATP filter-binding), EGFR exon 20 insertion mutant kinase D770-N771insNPG; assay type: biochemical; conditions: ATP Km concentration; 10 concentrations
[7] = tested on: PC9 (EGFRdel19) cells; experiment: Cell proliferation inhibitory activity test (WST-8) of related EGFR mutations; assay type: cell-based; conditions: 72 h, cell viability; read-out: IC 50 (nM) PC-9 (EGFRdel19)
Protocol: (§7) Cell Proliferation Inhibitory Activity Test Experiments of Related EGFR Mutations: 1.
(§8) Cell culture medium: RPMI containing 10% fetal bovine serum, 5 mM HEPES, and 2 mM glutamine.
(§9) Incubated overnight in a 5% carbon dioxide incubator at 37° C.
(§10) The compound was diluted to the required concentration in the culture medium at five times the final concentration. 20 microliters of the compound diluent was transferred to a culture plate containing 80 microliters of the cells incubated overnight, and continued to be incubated for 72 hours.
(§11) After 72 hours, 10 microliters of 6 mg/ml WST8 solution dissolved in a phosphate buffer solution was added, and incubated for 3 hours in 5% carbon dioxide at 37° C. A light absorption value at 450 nm was read and subtracted by an absorption value at 650 nm.
(§12) The obtained light absorption value was used to calculate cell viability according to the following equation: Cell viability %=(OD determination value/OD drug-free cell)×100

[8] = tested on: H-1975 (EGFRL858R/T790M) cells; experiment: as above; assay type: cell-based; conditions: Homo sapiens, NCI-H1975, 72 h, read-out: IC 50 (nM) H-1975 (EGFRL858/T790M)
Protocol: as §7, §8, §9, §10, §11, §12

C=CC(=O)Nc1cc(Nc2ncc(-c3nnc(C)o3)c(-c3cn(C)c4ccccc34)n2)c(OC)cc1N(C)CC1(N(C)C)CC1 [Example 23]
GI50 [1]: < 5 nM
GI50 [2]: < 5 nM
GI50 [3]: < 5 nM
GI50 [4]: < 5 nM

C=CC(=O)Nc1cc(Nc2ncc(-c3nnc(C(C)C)o3)c(-c3cn(C)c4ccccc34)n2)c(OC)cc1N(C)CCN(C)C [Example 31]
GI50 [2]: < 5 nM

C=C(F)C(=O)Nc1cc(Nc2ncc(-c3nnc(C)o3)c(-c3cn(C)c4ccccc34)n2)c(OC)cc1N(C)[C@H]1[C@@H]2CN(C)C[C@@H]21 [Example 34]
GI50 [1]: < 5 nM
GI50 [2]: < 5 nM
GI50 [3]: < 5 nM
GI50 [4]: 5 to 50 nM

C=CC(=O)Nc1cc(Nc2ncc(-c3nnc(C)o3)c(-c3cn(C)c4ccccc34)n2)c(OC)cc1N1C[C@H]2CN(C)C[C@H]2C1 [Example 28]
GI50 [2]: > 50 nM

C=CC(=O)Nc1cc(Nc2ncc(C(=O)OC(C)C)c(-n3cc4c(n3)-c3ccccc3C4)n2)c(OC)cc1N(C)CCN(C)C [Example 12]
IC50 [5]: 2.27 nM
activity relative to the compound with the optimal activity disclosed in WO2015195228A1 (TAK788) ([5]; EGFR exon 20 insertion mutant kinases of Table 4): 2 to 3 times
IC50 [6]: 0.3 nM

C=CC(=O)Nc1cc(Nc2ncc(C3=NOC(C)(C)N3)c(-c3cn(C)c4ccccc34)n2)c(OC)cc1N(C)CCN(C)C [Example 19]
GI50 [2]: > 50 nM

[2H]C([2H])([2H])n1cc(-c2nc(Nc3cc(NC(=O)C=C)c(N(C)CCN(C)C)cc3OC)ncc2-c2nnc(C)o2)c2ccccc21 [Example 24]
GI50 [1]: < 5 nM
GI50 [2]: < 5 nM
GI50 [3]: < 5 nM
GI50 [4]: < 5 nM

C=CC(=O)Nc1cc(Nc2nccc(-n3ncc4c3-c3ccccc3C4)n2)c(OC)cc1N(C)CCN(C)C [Example 13]
IC50 [5]: 61.1 nM
IC50 [6]: 169 nM

C=CC(=O)Nc1cc(Nc2ncc(-c3nnco3)c(-c3cn(C)c4ccccc34)n2)c(OC)cc1N(C)CCN(C)C [Example 21]
GI50 [2]: < 5 nM

C=CC(=O)Nc1cc(Nc2ncc(C(=O)N(C)S(C)(=O)=O)c(-c3cn(C)c4ccccc34)n2)c(OC)cc1N(C)CCN(C)C [Example 9]
IC50 [5]: 10.4 nM
IC50 [6]: 1.83 nM

C=CC(=O)Nc1cc(Nc2ncc(C(=O)OC(C)C)c(-n3ncc4c3Cc3ccccc3-4)n2)c(OC)cc1N(C)CCN(C)C [Example 6]
IC50 [5]: 9 nM
IC50 [6]: 1.38 nM

C=CC(=O)Nc1cc(Nc2ncc(C(=O)OC(C)C)c(-c3nn(C)c4c3Cc3ccccc3-4)n2)c(OC)cc1N(C)CCN(C)C [Example 14]
IC50 [5]: 44.6 nM
IC50 [6]: 10.1 nM

C=CC(=O)Nc1cc(Nc2ncc(C(=O)OC(C)C)c(-c3cn(C)c4ccccc34)n2)c(OC)cc1N(C)[C@H]1[C@@H]2CN(C)C[C@@H]21 [Example 40]
GI50 [1]: < 5 nM
GI50 [2]: < 5 nM
GI50 [3]: < 5 nM
GI50 [4]: < 5 nM

C=CC(=O)Nc1cc(Nc2ncc(C(=O)OC(C)C)c(-c3cn(C)c4ccccc34)n2)c(OC)cc1N(C)CC1(N(C)C)CC1 [Example 41]
GI50 [1]: < 5 nM
GI50 [2]: < 5 nM
GI50 [3]: < 5 nM
GI50 [4]: < 5 nM

C=CC(=O)Nc1cc(Nc2ncc(-c3nnc(C)o3)c(-c3cn(C)c4ccccc34)n2)c(OC)cc1N(C)C1CC2(C1)CN(C)C2 [Example 30]
GI50 [2]: > 50 nM

C=CC(=O)Nc1cc(Nc2ncc(C(=O)OC(C)C)c(-c3cn(C)c4ccccc34)n2)c(OC)cc1N(C)C1(CN(C)C)CC1 [Example 42]
GI50 [2]: < 5 nM

[2H]C([2H])([2H])n1cc(-c2nc(Nc3cc(NC(=O)C=C)c(N(C)[C@H]4[C@@H]5CN(C)C[C@@H]54)cc3OC)ncc2C(=O)OC(C)C)c2ccccc21 [Example 47]
GI50 [1]: < 5 nM
GI50 [2]: < 5 nM
GI50 [3]: < 5 nM
GI50 [4]: < 5 nM

[2H]C([2H])([2H])n1cc(-c2nc(Nc3cc(NC(=O)C=C)c(N(C)CCN(C)C)nc3OCC(F)(F)F)ncc2CO)c2ccccc21 [Example 10]
IC50 [5]: 36.4 nM
IC50 [6]: 7.66 nM

C=CC(=O)Nc1cc(Nc2ncc(-c3nnc(C)o3)c(-c3c[nH]c4ccccc34)n2)c(OC)cc1N(C)CCN(C)C [Example 26]
GI50 [1]: < 5 nM
GI50 [2]: < 5 nM
GI50 [3]: < 5 nM
GI50 [4]: < 5 nM

C=CC(=O)Nc1cc(Nc2ncc(-c3nnc(C(F)F)s3)c(-c3cn(C)c4ccccc34)n2)c(OC)cc1N(C)CCN(C)C [Example 29]
GI50 [1]: < 5 nM
GI50 [2]: 5 to 50 nM
GI50 [3]: < 5 nM
GI50 [4]: 5 to 50 nM

[2H]C([2H])([2H])n1cc(-c2nc(Nc3cc(NC(=O)C=C)c(N(C)CCN(C)C)nc3OCC(F)(F)F)ncc2-c2nnc(C)o2)c2ccccc21 [Example 3]
IC50 [5]: 6.07 nM
IC50 [6]: 1.48 nM

C=CC(=O)Nc1cc(Nc2ncc(-c3nnc(CC)o3)c(-c3cn(C)c4ccccc34)n2)c(OC)cc1N(C)CCN(C)C [Example 33]
GI50 [1]: < 5 nM
GI50 [2]: < 5 nM
GI50 [3]: < 5 nM
GI50 [4]: < 5 nM

C=C(F)C(=O)Nc1cc(Nc2ncc(-c3nnc(C)o3)c(-c3cn(C)c4ccccc34)n2)c(OC)cc1N(C)CCN(C)C [Example 27]
GI50 [2]: 5 to 50 nM

C=CC(=O)Nc1cc(Nc2ncc(C(=O)OC(C)C)c(-n3ncc4c3-c3ccccc3C4)n2)c(OC)cc1N(C)CCN(C)C [Example 11]
IC50 [6]: 7360 nM

C=CC(=O)Nc1cc(Nc2ncc(-c3nnc(C)o3)c(-c3cn(C4CC4)c4ccccc34)n2)c(OCC(F)(F)F)nc1N(C)CCN(C)C [Example 4]
IC50 [5]: 15.3 nM
IC50 [6]: 2.79 nM

C=CC(=O)Nc1cc(Nc2ncc(C(=O)OC(C)C)c(-c3cn(C)c4ccccc34)n2)c(OC)cc1N1C[C@H]2CN(C)C[C@H]2C1 [Example 36]
GI50 [1]: < 5 nM
GI50 [2]: < 5 nM
GI50 [3]: < 5 nM
GI50 [4]: < 5 nM

C=CC(=O)Nc1cc(Nc2ncc(-c3nnc(C)s3)c(-c3cn(C)c4ccccc34)n2)c(OC)cc1N(C)CCN(C)C [Example 25]
GI50 [1]: 5 to 50 nM
GI50 [2]: < 5 nM
GI50 [3]: < 5 nM
GI50 [4]: 5 to 50 nM

C=CC(=O)Nc1cc(Nc2ncc(C(=O)OC(C)C)c(-c3cn(C)c4ccccc34)n2)c(OC)cc1N(C)[C@H]1C[C@@H]2CN(C)C[C@@H]2C1 [Example 43]
GI50 [2]: < 5 nM

C=CC(=O)Nc1cc(Nc2ncc(C(=O)OC(C)C)c(-n3cc4c(n3)Cc3ccccc3-4)n2)c(OC)cc1N(C)CCN(C)C [Example 7]
IC50 [5]: 5600 nM
IC50 [6]: 1190 nM

C=CC(=O)Nc1cc(Nc2ncc(C3=NOC(C)(C)O3)c(-c3cn(C)c4ccccc34)n2)c(OC)cc1N(C)CCN(C)C [Example 20]
GI50 [2]: > 50 nM

C=CC(=O)Nc1cc(Nc2ncc(-c3nnc(C)o3)c(-c3cn(C)c4ccccc34)n2)c(OC)cc1N(C)C1CCN(C)CC1 [Example 32]
GI50 [2]: 5 to 50 nM

C=CC(=O)Nc1cc(Nc2nccc(-c3cn(C)c4ccccc34)n2)c(OC)cc1N(C)CCN(C)C [AZD-9291, osimertinib, reference compound]
IC50 [7]: 7.85 nM
IC50 [8]: 20.2 nM

C=CC(=O)Nc1cc(Nc2ncc(-c3nnc(C)o3)c(-c3cn(C)c4ccccc34)n2)c(OC)cc1N(C)C1(CN(C)C)CC1 [Example 22]
GI50 [2]: < 5 nM
